In patent US12661388B2, “Assessing and treating acute decompensated heart failure” (Mayo Foundation for Medical Education and Research, priority 2020, dated 2026):

Legend:
human GC-A = molecular target: T1, human GC-A (Homo sapiens, UniProt P16066); assay: cGMP generation in HEK293 cells transfected with human GC-A receptor; assay type: cell-based; settings: vs vehicle; for cGMP generation: HEK293 cells overexpressing human GC-A, 10^-8, 10^-7, 10^-6 M, 10 minutes
T1 construct: host or cells: HEK293
T1 sequence (P16066 33-1061): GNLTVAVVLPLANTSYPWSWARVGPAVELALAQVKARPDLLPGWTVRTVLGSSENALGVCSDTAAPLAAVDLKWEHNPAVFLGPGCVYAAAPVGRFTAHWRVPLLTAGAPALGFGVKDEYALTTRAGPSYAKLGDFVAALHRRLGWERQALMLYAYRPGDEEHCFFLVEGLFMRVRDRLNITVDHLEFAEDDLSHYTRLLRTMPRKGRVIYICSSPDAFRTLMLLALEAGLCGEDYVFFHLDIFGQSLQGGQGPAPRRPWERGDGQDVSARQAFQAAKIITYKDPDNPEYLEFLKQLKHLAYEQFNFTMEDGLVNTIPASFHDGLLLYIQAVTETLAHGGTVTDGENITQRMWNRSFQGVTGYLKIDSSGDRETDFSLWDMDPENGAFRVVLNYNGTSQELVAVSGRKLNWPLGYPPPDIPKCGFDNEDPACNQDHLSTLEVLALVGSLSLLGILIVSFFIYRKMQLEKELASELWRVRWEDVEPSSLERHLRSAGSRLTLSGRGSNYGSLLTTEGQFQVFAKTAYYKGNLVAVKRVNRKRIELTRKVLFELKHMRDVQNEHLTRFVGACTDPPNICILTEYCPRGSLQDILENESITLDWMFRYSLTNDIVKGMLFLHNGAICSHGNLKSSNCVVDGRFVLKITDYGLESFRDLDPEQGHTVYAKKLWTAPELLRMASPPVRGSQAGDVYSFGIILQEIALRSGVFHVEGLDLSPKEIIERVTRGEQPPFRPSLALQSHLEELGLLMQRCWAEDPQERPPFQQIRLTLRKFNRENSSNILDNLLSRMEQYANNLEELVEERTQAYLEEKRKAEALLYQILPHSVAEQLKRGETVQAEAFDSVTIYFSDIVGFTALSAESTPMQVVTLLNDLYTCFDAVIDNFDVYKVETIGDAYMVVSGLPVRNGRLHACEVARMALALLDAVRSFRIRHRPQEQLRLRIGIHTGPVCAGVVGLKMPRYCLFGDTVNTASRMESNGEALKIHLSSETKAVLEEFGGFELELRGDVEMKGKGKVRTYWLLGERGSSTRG
Description: (§1) cGMP Generation in HEK293 Cells Transfected with Human GC-B or GC-A Receptor In Vitro: HEK293 cells were stably transfected with either human GC-B or GC-A (cDNA clones from Origene, Rockville, MD) using LIPOFECTAMINE® (Invitrogen, Grand Island, NY). Receptors overexpression was verified with immunofluorescence and western blotting. GC-B/-A transfected HEK293 cells were maintained in Dulbecco's modified Eagle's medium supplemented with 10% fetal bovine serum, 100 U/mL penicillin, 100 U/mL streptomycin, and 250 μg/mL G418. Cells were seeded in 48-well plates and cultured overnight to reach 80-90% confluency. The treatment buffer that includes, Hank's Balanced Salt Solution (HBSS) including 0.1% BSA, 2 mM HEPES and 0.5 mM 3-isobutyl-1-methylzanthine (IBMX—a non-specific phosphodiesterase inhibitor, Sigma, St. Louis, MO), was used in all experiments. HEK293 cells received treatment buffer (vehicle) only was used as a negative control and ANP (10^−8M) was used as a positive control in HEK293 GC-A cells and CNP (10^−8 M) was used as a positive control in HEK293 GC-B cells. Concentrations of CD-NP, CRRL-404, CRRL-405, CRRL-407 or CRRL=408 (10^−8, 10^−7, and 10^−6 M) in HBSS were incubated with HEK293 transfected GC-B or GC-A cells for 10 minutes. After treatment, all cells were washed with phosphate buffered solution (PBS) once and lysed with 0.1M HCl. Intracellular cGMP was measured in the lysate using a commercial cGMP ELISA kit (Enzo Life Sciences, Farmingdale, NY) as instructed by the manufacturer.
(§2) cGMP Assay: The ELISA plate was coated in neutralizing solution (50 μL), prior to addition of samples and standards. Cell lysates (100 μL) and standards (100 μL), in 0.1M HCL, were incubated with cGMP conjugate (50 μL) and cGMP antibody (50 μL) at room temperature for 2 hours, 500 rpm. The plates were washed 4 times and 200 μL of pNPP substrate was added in each well and incubated for 1 hour at room temperature. The reaction was stopped by adding stop solution and absorbance was read at 405 nm and corrected for plate imperfections at 570 nm using SpectramaxM2. Standard curve was generated using the Softmaxpro software and unknown concentrations were extrapolated based on the standard curve. Samples exceeding the standard curve were diluted as needed in 0.1M HCl and corresponding dilution factors were applied to extrapolate final concentrations. The standard curve range is from 0.8 pmol/mL-500 pmol/mL. The % CV at EC50 is 6.6%.

human GC-B = molecular target: T2, human GC-B (Homo sapiens, UniProt P20594); assay: cGMP generation in HEK293 cells transfected with human GC-B receptor; assay type: cell-based; settings: vs vehicle; for cGMP generation: HEK293 cells overexpressing human GC-B, 10^-8, 10^-7, 10^-6 M, 10 minutes
T2 construct: host or cells: HEK293
T2 sequence (P20594 23-1047): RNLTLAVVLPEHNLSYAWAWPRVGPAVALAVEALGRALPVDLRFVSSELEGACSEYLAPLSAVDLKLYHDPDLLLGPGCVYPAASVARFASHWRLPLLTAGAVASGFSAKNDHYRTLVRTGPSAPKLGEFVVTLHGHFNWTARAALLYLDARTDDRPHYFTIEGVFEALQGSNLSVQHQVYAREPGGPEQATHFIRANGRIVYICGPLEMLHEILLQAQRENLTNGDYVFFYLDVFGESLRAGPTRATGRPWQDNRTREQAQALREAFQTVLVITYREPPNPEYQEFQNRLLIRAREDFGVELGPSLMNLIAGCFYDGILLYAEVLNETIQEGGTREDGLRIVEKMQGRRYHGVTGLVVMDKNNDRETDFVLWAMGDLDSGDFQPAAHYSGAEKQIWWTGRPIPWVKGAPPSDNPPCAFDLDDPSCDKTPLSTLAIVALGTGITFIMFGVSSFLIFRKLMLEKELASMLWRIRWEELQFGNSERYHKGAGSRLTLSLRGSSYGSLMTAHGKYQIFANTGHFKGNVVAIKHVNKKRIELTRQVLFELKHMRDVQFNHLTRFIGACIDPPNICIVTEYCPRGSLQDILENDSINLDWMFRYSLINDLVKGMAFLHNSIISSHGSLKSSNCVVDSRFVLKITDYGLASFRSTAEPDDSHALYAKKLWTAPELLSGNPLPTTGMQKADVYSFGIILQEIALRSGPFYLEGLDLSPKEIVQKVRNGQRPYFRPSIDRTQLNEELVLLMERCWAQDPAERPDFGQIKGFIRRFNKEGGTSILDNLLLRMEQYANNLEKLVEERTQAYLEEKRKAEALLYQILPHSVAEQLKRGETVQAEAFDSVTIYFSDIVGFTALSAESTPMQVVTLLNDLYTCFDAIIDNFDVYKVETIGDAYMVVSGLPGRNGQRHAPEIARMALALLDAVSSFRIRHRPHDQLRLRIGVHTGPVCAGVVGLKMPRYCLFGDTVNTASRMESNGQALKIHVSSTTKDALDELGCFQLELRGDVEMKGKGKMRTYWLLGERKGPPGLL
Description: as §1, §2

[1] = tested on: human renal fibroblasts (HRFs); assay: cGMP generation in human primary renal fibroblasts; assay type: cell-based; settings: 10^-8, 10^-7, 10^-6 M, 10 minutes, vs vehicle
Description: (§3) cGMP Generation in Human Primary Renal Cells: Human primary renal fibroblasts (HRFs, Cell Biologics, Chicago, IL) and human renal proximal tubular epithelial cells (HRPTCs, ScienCell Research Laboratories, Carlsbad, CA) were maintained and sub-cultured according to the manufacturer's protocols. Briefly, the cells were grown in 6-well plates until 80% confluency and were then treated with treatment buffer (vehicle; HBSS including 0.1% BSA, 2 mM HEPES and 0.5 mM IBMX) alone or with concentrations of CRRL-408 (10^−8, 10^−7 and 10^−6 M) for 10 minutes. Cells were washed with PBS once and lysed with 0.1M HCl. Intracellular cGMP was measured in the lysate using a commercial cGMP ELISA kit (Enzo Life Sciences, Farmingdale, NY) as instructed by the manufacturer described below.
(§4) cGMP Assay: The ELISA plate was coated in neutralizing solution (50 μL), prior to addition of samples and standards. Cell lysates (100 μL) and standards (100 μL), in 0.1M HCL, were incubated with cGMP conjugate (50 μL) and cGMP antibody (50 μL) at room temperature for 2 hours, 500 rpm. The plates were washed 4 times and 200 μL of pNPP substrate was added in each well and incubated for 1 hour at room temperature. The reaction was stopped by adding stop solution and absorbance was read at 405 nm and corrected for plate imperfections at 570 nm using SpectramaxM2. […]

[2] = tested on: human renal proximal tubular cells (HRPTCs); assay: cGMP generation in human renal proximal tubular epithelial cells; assay type: cell-based; settings: 10^-8, 10^-7, 10^-6 M, 10 minutes, vs vehicle
Description: as §3, §4

normal rats = assay: Acute IV infusion in vivo study, plasma and urinary cGMP; design: species or system rat; settings: IV infusion 2.12 μg/kg/min, vs vehicle (saline)
Description: Acute IV Infusion In Vivo Study: the cGMP generating actions of 2.12 μg/kg/minute dose CRRL-408 or vehicle (0.9% normal saline) [n=4/group] was investigated in normal rats (approximately 2 months old; 200-250 grams; Envigo, East Millstone, NJ). Studies were performed in accordance with the Animal Welfare Act and with approval of the Mayo Clinic Institutional Animal Care and Use Committee.
Rats were anesthetized with isoflurane (2-3% in oxygen) and were subjected to vessel and bladder cannulation for peptide/vehicle infusion, blood sampling and urine collection. A polyethylene (PE)-50 tube catheter was placed into the jugular vein for CRRL-408/vehicle intravenous (IV) infusion. The carotid artery was cannulated with a PE-50 tube catheter for blood sampling. The bladder was accessed and cannulated with a PE-50 tube catheter for passive urine collection. After completion of the above procedural set up, a 30 minute equilibration period was performed that included continuous IV saline infusion. After the 30 minute equilibration period the saline infusion was replaced by a continuous IV infusion (75 min including a 15 minute lead-in period) of 2.12 μg/kg/minute dose of CRRL-408 or vehicle. The infusion rate was weight adjusted and calculated as follows: rat weight (grams)*0.7/60/100 mL/minute. […]

Substance	cGMP generation (human GC-A)	cGMP generation (human GC-B)	also measured
ANKKGLSKGCFGLKLDRIGSMSGLGCPSLRDPRPNAPSTSA [CRRL-405]	stimulated cGMP generation	stimulated cGMP generation	–
ANP: natriuretic peptide used as a positive control in HEK293 GC-A cells [reference compound]	–	–	cGMP generation (positive control) (human GC-A; HEK293 GC-A cells, 10^-8 M): significant cGMP generation response
CNP: C-type natriuretic peptide, used as a positive control in HEK293 GC-B cells [reference compound]	–	–	cGMP generation (positive control) (human GC-B; HEK293 GC-B cells, 10^-8 M): significant cGMP generation response
GLSKGCFGLKLDRIGSMSGLGCPSLRDPRPNAP STSA [CD-NP, reference compound]	stimulated cGMP generation	stimulated cGMP generation	–
KGANKKGLSKGCFGLKLDRIGSMSGLGCPSLRDPRPNAPSTSA [CRRL-407]	stimulated cGMP generation	stimulated cGMP generation	–
KKGLSKGCFGLKLDRIGSMSGLGCPSLRDPRPNAPSTSA [CRRL-404]	stimulated cGMP generation	stimulated cGMP generation	–
KYKGANKKGLSKGCFGLKLDRIGSMSGLGCPSLRDPRPNAPSTSA [CRRL-408]	stimulated cGMP generation	stimulated cGMP generation	intracellular cGMP levels [1]: increased intracellular cGMP levels in a dose dependent manner; intracellular cGMP levels [2]: increased intracellular cGMP levels in a dose dependent manner; plasma cGMP (normal rats): significantly elevated; urinary cGMP (normal rats): significantly elevated
